Data on 34 molecules can be found in ChEMBL document CHEMBL1155476, “A vHTS approach for the identification of beta-adrenoceptor ligands” (Bioorg Med Chem Lett, 2010).

In general, pKi refers to the Ki on a negative log10 scale, so that one unit is a factor of ten. As a reminder, the solubility is the concentration that dissolves in the medium under given conditions. A high value points to a readily soluble substance. What is called pEC50 is the EC50 on a negative log10 scale, so that one unit is a factor of ten. One may read the half-life as the time in which the quantity being followed falls by half. Low values mean fast loss, high ones slow loss. Usually Cmax stands for the peak of the concentration-time curve. The term pIC50 denotes the negative decadic logarithm of the IC50, by convention in mol/L.

Molecules are shown by their SMILES. pEC50, pIC50, pKi: −log10 of the molar value. In brackets after ≈: the same amount, converted by molar mass.

The target in data set [1] is T1, Beta-3 adrenergic receptor (Homo sapiens, UniProt P13945). The data set can be described thus: biochemical.
Description: Displacement of [125I]cyanopindolol from human adrenergic beta3 receptor expressed in CHOK1 cells
Data set [2] addresses T2, Beta-1 adrenergic receptor (Homo sapiens, UniProt P08588). As to the kind of experiment: Displacement of [125I]cyanopindolol from human adrenergic beta-1 receptor expressed in CHOK1 cells. Format: cell-based, CHO-K1. Particulars: for pKi: read-out: Ki; call rule not given here.
Target sequence in this assay (P08588 whole entry): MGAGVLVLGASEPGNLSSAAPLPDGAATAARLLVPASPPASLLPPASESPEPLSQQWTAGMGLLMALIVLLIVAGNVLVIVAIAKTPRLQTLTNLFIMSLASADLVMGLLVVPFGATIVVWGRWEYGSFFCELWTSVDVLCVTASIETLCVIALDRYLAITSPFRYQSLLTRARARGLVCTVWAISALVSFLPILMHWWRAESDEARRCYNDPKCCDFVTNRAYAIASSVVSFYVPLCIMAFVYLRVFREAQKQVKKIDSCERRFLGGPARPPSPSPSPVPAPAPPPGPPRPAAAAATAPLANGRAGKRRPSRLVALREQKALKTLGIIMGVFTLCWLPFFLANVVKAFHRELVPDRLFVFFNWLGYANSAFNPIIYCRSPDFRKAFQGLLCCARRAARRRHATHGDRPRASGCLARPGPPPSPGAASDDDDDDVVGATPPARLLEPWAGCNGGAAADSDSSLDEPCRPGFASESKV
The target of data set [3] is T3, Beta-2 adrenergic receptor (Homo sapiens, UniProt P07550). As to the kind of experiment: biochemical.
Description: Displacement of [125I]cyanopindolol from human adrenergic beta2 receptor expressed in CHOK1 cells
Data set [4] can be described thus: Cytotoxicity against human HepG2 cells. Format: cell-based. Particulars: read-out: ED50 (the source's name).
The nature of data set [5]: Solubility at pH 4. To be noted: buffer. The data set is classed as physicochemical.
Data set [6] concerns the target T1, Beta-3 adrenergic receptor.
Description: Agonist activity at human adrenergic beta3 receptor expressed in CHOK1 cells assessed as cAMP accumulation by HTRF assay
A short description of data set [7]: Permeability by PAMPA method. The data set is classed as ADME. For orientation: In PAMPA a lipid-coated filter parts donor from acceptor wells.
Data set [8] can be described thus: Solubility at pH 6. Format: physicochemical. To be noted: buffer.
Data set [9] is described as follows: Half life in Wistar rat at 10 mg/kg, po. On the set-up: dose 10 mg/kg, route oral. Particulars: in vivo. The data set is classed as ADME, organism-based.
Data set [10] is described as follows: Cmax in Wistar rat at 10 mg/kg, po. Particulars: in vivo. The data set is classed as ADME, organism-based. Details: dose 10 mg/kg, route oral.
The target of data set [11] is T3, Beta-2 adrenergic receptor. As to the kind of experiment: Antagonist activity at human adrenergic beta2 receptor expressed in CHOK1 cells assessed as inhibition of cAMP accumulation by HTRF assay. Format: functional, cell-based, CHO-K1.
Data set [12] can be described thus: Cytotoxicity against human PBMC cells. Format: cell-based. To be noted: read-out: ED50 (the source's name).
The target of data set [13] is T2, Beta-1 adrenergic receptor. As to the kind of experiment: Agonist activity at human adrenergic beta-1 receptor expressed in CHOK1 cells assessed as cAMP accumulation by HTRF assay. The data set is classed as functional, cell-based, CHO-K1.
Target sequence in this assay (P08588 whole entry): as above
Data set [14] addresses T2, Beta-1 adrenergic receptor. The data set can be described thus: Intrinsic activity at human adrenergic beta-1 receptor expressed in CHOK1 cells assessed as cAMP accumulation by HTRF assay relative to isoproterenol. Format: functional, cell-based. To be noted: CHO-K1. For orientation: Changes in cAMP serve as a functional read-out for many G protein-coupled receptors.
Target sequence in this assay (P08588 whole entry, looked up): as the sequence (P08588 whole entry) above

The target of data set [15] is T1, Beta-3 adrenergic receptor. The data set can be described thus: Antagonist activity at human adrenergic beta3 receptor expressed in CHOK1 cells assessed as inhibition of cAMP accumulation by HTRF assay. The data set is classed as functional, cell-based, CHO-K1.
In data set [16] the target is T2, Beta-1 adrenergic receptor. The data set can be described thus: Antagonist activity at human adrenergic beta-1 receptor expressed in CHOK1 cells assessed as inhibition of cAMP accumulation by HTRF assay. Format: functional, cell-based, CHO-K1.
Target sequence in this assay (P08588 whole entry): as above

T3 sequence (P07550 whole entry): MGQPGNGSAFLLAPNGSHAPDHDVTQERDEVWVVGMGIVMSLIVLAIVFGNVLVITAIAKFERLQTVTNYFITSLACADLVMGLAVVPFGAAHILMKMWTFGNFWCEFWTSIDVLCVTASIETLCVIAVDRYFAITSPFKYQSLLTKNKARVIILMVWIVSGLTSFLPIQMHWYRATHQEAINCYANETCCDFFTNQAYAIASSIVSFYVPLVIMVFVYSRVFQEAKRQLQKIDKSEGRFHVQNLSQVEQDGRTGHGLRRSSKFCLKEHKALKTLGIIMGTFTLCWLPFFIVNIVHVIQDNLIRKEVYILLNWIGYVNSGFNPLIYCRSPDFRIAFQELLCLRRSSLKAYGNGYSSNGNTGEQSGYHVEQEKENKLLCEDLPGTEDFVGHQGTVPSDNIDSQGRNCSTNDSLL
T1 sequence (P13945 whole entry): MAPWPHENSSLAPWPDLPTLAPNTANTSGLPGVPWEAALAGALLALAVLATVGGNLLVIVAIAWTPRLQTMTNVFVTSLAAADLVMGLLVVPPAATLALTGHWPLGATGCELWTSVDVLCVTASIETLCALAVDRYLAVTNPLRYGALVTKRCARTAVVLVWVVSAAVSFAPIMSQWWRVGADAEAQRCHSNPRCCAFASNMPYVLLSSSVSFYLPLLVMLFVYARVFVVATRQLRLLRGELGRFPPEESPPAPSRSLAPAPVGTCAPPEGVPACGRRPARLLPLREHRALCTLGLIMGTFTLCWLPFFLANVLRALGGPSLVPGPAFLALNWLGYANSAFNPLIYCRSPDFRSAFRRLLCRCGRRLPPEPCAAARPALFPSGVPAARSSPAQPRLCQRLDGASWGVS

With `CC(C)c1ccccc1OCC(O)CN1CCC(CN2C(=O)CCCC2=O)CC1` (configuration not stated), the negative logarithm of the Ki (pKi) in data set [1] is 5.54; in data set [2] it was 6.61; in data set [3], 8.05.
Taken in the same sequence, the figures for `CC(C)c1ccccc1OCC(O)CN1CCOCC1` (configuration not stated) were 5.75, 7.92 and 8.92.
Taken in the same sequence, the figures for `OC(COc1cccc2[nH]c3ccccc3c12)CN1CCC(Cc2cccnc2)CC1` (configuration not stated) were 7.14, 9.00 and 10.00.
In the case of `O=C(c1ccc(F)cc1)C1CCN(CC(O)COc2cccc3[nH]c4ccccc4c23)CC1` (configuration not stated), the CC50 in [4] stood at 19 µM; in data set [12], 9 µM. Also, the values for the solubility in data set [5] and in data set [8] were 180 µM (≈ 80.4 µg/mL) and 10 µM (≈ 4.47 µg/mL), respectively. Further, the pEC50 was 6.41 in data set [6] and 6.51 in data set [13]. Further, the result in [7] was Active. Besides, in data set [9], the half-life was 7.5 h. In addition, the pKi in data set [1] is 6.60; in data set [2], 7.49; in data set [3], 9.52. The same molecule showed a Cmax in data set [10] of 290 nM. In addition, in data set [11], the negative-log IC50 (pIC50) is 7.49. In [14], the Intrinsic activity was determined as 20%.
Turning to `C=CCc1ccccc1OCC(O)CN1CCC(CN2C(=O)c3ccccc3C2=O)CC1` (configuration not stated), the results for the pKi in data set [1], in [2] and in data set [3] were 5.47, 6.72 and 7.30, respectively.
Taken in the same sequence, the figures for `C=CCc1ccccc1OCC(O)CN1CCC(CN2C(=O)CCCC2=O)CC1` (configuration not stated) were 4.96, 6.36 and 7.10.
Taken in the same sequence, the figures for `O=C(c1ccccc1)C1CCN(CC(O)COc2cccc3[nH]c4ccccc4c23)CC1` (configuration not stated) were 6.64, 7.80 and 9.70.
Taken in the same sequence, the figures for `CC(C)c1ccccc1OCC(O)CN1CCN(CCN2C(=O)c3cccc4cccc(c34)C2=O)CC1` (configuration not stated) were 5.83, 6.13 and 7.15.
`C=CCc1ccccc1OCC(O)CN1CCC(CN2C(=O)c3cccc4cc(O)cc(c34)C2=O)CC1` (configuration not stated): the pKi in data set [1] is 5.66; in [2], 6.77; in data set [3] it was 6.87.
For the molecule `COc1ccc(C(=O)C2CCN(CC(O)COc3cccc4[nH]c5ccccc5c34)CC2)cc1` (configuration not stated), the pKi in data set [1] is 5.04; in data set [2], 7.89; in [3], 9.70.
Taken in the same sequence, the figures for `COc1ccc(OCC(O)CN2CCC(CN3C(=O)c4cccc5cccc(c45)C3=O)CC2)c(C(C)(C)C)c1` (configuration not stated) were 5.47, 6.28 and 6.52.
For the molecule `O=C1c2cccc3cc(O)cc(c23)C(=O)N1CC1CCN(CC(O)COc2cccc3[nH]c4ccccc4c23)CC1` (configuration not stated), the figures for the negative logarithm of the EC50 (pEC50) in [6] and in data set [13] were 6.63 and 7.10, respectively. Also, the results for the negative logarithm of the Ki (pKi) in data set [1], in data set [2] and in data set [3] were 6.23, 6.60 and 7.43, respectively. Further, the negative-log IC50 (pIC50) in [11] was 6.92. Further, in data set [14], the Intrinsic activity is 40%.
With `C=CCc1ccccc1OCC(O)CN1CCC(N2C(=O)c3cccc4cccc(c34)C2=O)CC1` (configuration not stated), the pKi in [1] was 5.63; in data set [2] it was 5.98; in data set [3], 7.40.
In the case of `CC(C)c1ccccc1OCC(O)CNC1CCN(C)CC1` (configuration not stated), the pKi in data set [1] was 5.97; in data set [2] it was 7.05; in data set [3] it was 7.77.
Taken in the same sequence, the figures for `OC(COc1cccc2[nH]c3ccccc3c12)CN1CCC(Cc2ccccc2)CC1` (configuration not stated) were 6.64, 7.85 and 9.30.
Taken in the same sequence, the figures for `CC(C)c1ccccc1OCC(O)CN1CCC(CN2C(=O)c3ccccc3C2=O)CC1` (configuration not stated) were 5.83, 6.14 and 7.77.
Taken in the same sequence, the figures for `C=CCc1ccccc1OCC(O)CN1CCC(CN2C(=O)c3cccc4cc(OC)cc(c34)C2=O)CC1` (configuration not stated) were 5.82, 6.52 and 7.11.
With `COc1ccc(OCC(O)CNC2CCN(c3ncnc4scc(-c5ccccc5)c34)CC2)cc1` (configuration not stated), in data set [2], the pKi is less than 5.00.
For the molecule `C=CCc1ccccc1OCC(O)CNC1CCN(C)CC1` (configuration not stated), the pKi in [1] is 5.21; in data set [2], 6.59; in data set [3], 8.62.
Taken in the same sequence, the figures for `C=CCc1ccccc1OCC(O)CN1CCOCC1` (configuration not stated) were 5.30, 6.94 and 8.15.
For `C=CCc1ccc(OCC(O)CN2CCC(CN3C(=O)c4cccc5cccc(c45)C3=O)CC2)c(OC)c1` (configuration not stated), in that order: 5.48, 5.87 and 5.48.
As for `O=C1c2cccc3cccc(c23)C(=O)N1CC1CCN(CC(O)COc2ccc3[nH]ccc3c2)CC1` (configuration not stated), the pKi in data set [1] was 5.07; in [2] it was 5.34; in [3], 5.90.
Taken in the same sequence, the figures for `COc1cc2c3c(cccc3c1)C(=O)N(CC1CCN(CC(O)COc3cccc4[nH]c5ccccc5c34)CC1)C2=O` (configuration not stated) were 6.39, 10.00 and 8.10.
As to `O=C1c2cccc3cccc(c23)C(=O)N1CC1CCN(CC(O)COc2cccc3[nH]c4ccccc4c23)CC1` (configuration not stated), the negative-log Ki (pKi) in data set [1] was 6.65; in data set [2], 8.15; in data set [3], 8.52.
For `O=C1c2cccc3cccc(c23)C(=O)N1CC1CCN(CC(O)COc2cccc3[nH]ccc23)CC1` (configuration not stated), in that order: 6.00, 7.57 and 6.92.
With `C=CCc1ccccc1OCC(O)CN1CCC(CN2C(=O)c3cccc4cccc(c34)C2=O)CC1` (configuration not stated), the pEC50 in [6] is 5.62. Further, the pKi in data set [1] is 6.39; in data set [2] it was 7.10.
For `CC(C)c1ccccc1OCC(O)CN1CCC(CN2C(=O)c3cccc4cccc(c34)C2=O)CC1` (configuration not stated), the figures for the negative-log Ki (pKi) in data set [1], in data set [2] and in data set [3] were 5.99, 6.60 and 6.64, respectively.
For `C=CCc1ccccc1OCC(O)CN1CCN(CCN2C(=O)c3cccc4cccc(c34)C2=O)CC1` (configuration not stated), in that order: 5.51, 6.53 and 6.82.
Taken in the same sequence, the figures for `COc1cc2c3c(cccc3c1)C(=O)N(CC1CCN(CC(O)COc3ccccc3C(C)C)CC1)C2=O` (configuration not stated) were 6.16, 6.68 and 7.42.
For the molecule `Cc1ccc(C(C)C)c(OCC(O)CN2CCN(CCN3C(=O)c4cccc5cccc(c45)C3=O)CC2)c1` (configuration not stated), the pKi was less than 5.00 in [1] and 6.96 in data set [3]. The Ki entry in data set [2] (cho-k1) is “Not Active”.
As to `O=C1c2cccc3cccc(c23)C(=O)N1C1CCN(CC(O)COc2cccc3[nH]c4ccccc4c23)CC1` (configuration not stated), the pKi in [1] is 7.01; in [2], 7.12; in data set [3], 7.24.
For `CC(C)c1ccccc1OCC(O)CN1CCC(N2C(=O)c3cccc4cccc(c34)C2=O)CC1` (configuration not stated), in that order: 5.42, 6.62 and 7.89.
In the case of `Cc1ccc(C(C)C)c(OCC(O)CN2CCC(CN3C(=O)c4cccc5cccc(c45)C3=O)CC2)c1` (configuration not stated), the values for the negative logarithm of the Ki (pKi) in data set [1], in data set [2] and in [3] were 6.39, 6.00 and 7.10, respectively. The pIC50 in data set [15] was 5.83; in data set [16] it was 5.86.
Regarding `COc1ccc(CC2CCN(CC(O)COc3cccc4[nH]c5ccccc5c34)CC2)cc1` (configuration not stated), the figures for the pKi in data set [1], in [2] and in [3] were 6.34, 8.47 and 9.70, respectively.
